Laboratory results reported in US20130143236A1, “METHOD FOR DETERMINING SENSITIVITY OF TUMOR CELLS TO DASATINIB AND COMPUTER PROGRAM” (priority 2011, published 2013).

Test system: tyrosine kinase in the measurement sample (cell membrane fraction of breast cancer cell lines)
Assay: Tyrosine kinase activity of cell membrane fraction in presence/absence of tyrosine kinase inhibitor (Poly-Glu4-Tyr substrate, ELISA chemiluminescence)
Format: biochemical
Conditions: 25 μM kinase inhibitor, 25 μM ATP, activity with inhibitor / without
Procedure: 500 μl of NP40(−) solubilized buffer (20 mM HEPES (pH 7.4)), 10 (w/v) % glycerol, 0.2% protease inhibitor cocktail (#P8340: Sigma-Aldrich (product composition: 104 mM AEBSF, 80 μM aprotinin, 4 mM bestatin, 1.4 mM E-64, 2 mM leupeptin, 1.5 mM Pepstatin A), 50 mM NaF and 200 μM Na3VO4) was added to the cell pellet, followed by stirring for 2 seconds three times using a vortex mixer. After being allowed to stand for 10 minutes, the soluble fraction was removed by centrifugal operation (at 20000×g, for 30 minutes, at 4° C.). The obtained pellet was resuspended in 500 μl of NP40(−) solubilized buffer, the soluble fraction was again removed by centrifugal operation (at 20000×g, for 20 minutes, at 4° C.), and the pellet was washed. The pellet was resuspended by adding 500 μl of NP40(+) solubilized buffer (a buffer prepared by adding NP-40 to the NP40(−) solubilized buffer at a final concentration of 1% to the pellet, pipetting 50 times, and vortexing for 2 seconds three times. After being allowed to stand for 10 minutes, a cell membrane fraction containing a membrane protein was obtained by centrifugal operation (at 20000×g, for 40 minutes, at 4° C.). The protein concentration of the obtained cell membrane fraction was measured by DC protein assay (#500-0116 JA: Bio-Rad). Then, the cell membrane fraction was used as a measurement sample for the following experiments. The measurement sample was frozen with liquid nitrogen and stored at −80° C. before use for the following kinase activity measurement.
NeutrAvidin Coated Plates (HBC) (96-well white plate; #15509: Pierce) were washed three times with 300 μl of TBS-T (20 mM Tris-HCl (pH 7.4)), 150 mM NaCl, 0.1% tween). Then, 100 μl of Poly-Glu4-Tyr biotin conjugate (#12440: Upstate) which had been diluted to 1 μg/ml with TBS (20 mM Tris-HCl (pH 7.4), 150 mM NaCl) was added to the wells. After shaking at 37° C. and 400 rpm for 90 minutes, the wells were washed with 300 μl of TBS-T three times and a measuring plate was obtained.
The measurement sample was diluted with a kinase buffer (20 mM HEPES (pH 7.4), 25 mM MgCl2, 1.25 mM MnCl2, 250 μM Na3VO4, 12.5 (w/v) % glycerol) so as to adjust the protein concentration to 6.25 μg/ml. The diluted measurement sample was transferred to wells of a 96 well V bottom plate. As the tyrosine kinase inhibitors, Src kinase inhibitor I known as an inhibitor of Src (CAS No. 179248-59-0: Calbiochem), PP1 (CAS No. 172889-26-8: Biomol), and Src kinase inhibitor II (Calbiochem) represented by Structural formula (I) below were used. A DMSO solution (inhibitor concentration: 5 mM) containing these inhibitors (Inhibitors 1 to 10 shown in Table 6) was added to the wells at a ratio of 1:160 based on the diluted measurement sample, followed by mixing thereof. As the control, DMSO was added to the diluted measurement sample at the same ratio as the solution of the inhibitor.
After addition of each of the tyrosine kinase inhibitors, a mixed solution of the measurement sample and the inhibitor was allowed to stand at room temperature for 10 minutes. 40 μl of the mixed solution was transferred to wells of the measuring plate and 10 μl of an ATP solution (20 mM HEPES (pH 7.4), […]) as the phosphate group donor was added to the wells. The composition of the solution in the wells is as follows: protein concentration: 5 μg/ml, 20 mM HEPES (pH 7.4), 20 mM MgCl2, 1 mM MnCl2, 200 μM Na3VO4, 10 (w/v) % glycerol, and 25 μM ATP, 25 μM kinase inhibitor.
After shaking the measuring plate at 37° C. and 400 rpm for 60 minutes, the solution was removed from the measuring plate, and the wells were washed with 300 μl of TBS-T three times. 100 μl of Starting Block T20 (TBS) (#37543: Pierce) as a blocking solution was added to the wells, followed by blocking at 37° C. and 400 rpm for 10 minutes. The blocking solution was removed from the measuring plate. […]

[1] = AU565 membrane fraction (dasatinib-insensitive cell line)
[2] = BT-20 membrane fraction (dasatinib-sensitive cell line)
[3] = BT-474 membrane fraction (dasatinib-insensitive cell line)
[4] = BT-549 membrane fraction (dasatinib-insensitive cell line)
[5] = HCC1419 membrane fraction (dasatinib-insensitive cell line)
[6] = HCC1428 membrane fraction (dasatinib-insensitive cell line)
[7] = HCC1806 membrane fraction (dasatinib-sensitive cell line)
[8] = HCC1954 membrane fraction (dasatinib-sensitive cell line)
[9] = HS578T membrane fraction (dasatinib-sensitive cell line)
[10] = MCF7 membrane fraction (dasatinib-insensitive cell line)
[11] = MDA-MB-157 membrane fraction (dasatinib-sensitive cell line)
[12] = MDA-MB-231 membrane fraction (dasatinib-sensitive cell line)
[13] = MDA-MB-435S membrane fraction (dasatinib-insensitive cell line)
[14] = MDA-MB-436 membrane fraction (dasatinib-insensitive cell line)
[15] = MDA-MB-453 membrane fraction (dasatinib-insensitive cell line)
[16] = MDA-MB-468 membrane fraction (dasatinib-insensitive cell line)
[17] = SK-BR-3 membrane fraction (dasatinib-insensitive cell line)
[18] = ZR-75-1 membrane fraction (dasatinib-insensitive cell line)
[19] = ZR-75-30 membrane fraction (dasatinib-insensitive cell line)

Row | Structure (SMILES) | RA (relative activity value) [1] | RA (relative activity value) [2] | RA (relative activity value) [3] | RA (relative activity value) [4] | RA (relative activity value) [5] | RA (relative activity value) [6] | RA (relative activity value) [7] | RA (relative activity value) [8] | RA (relative activity value) [9] | RA (relative activity value) [10] | RA (relative activity value) [11] | RA (relative activity value) [12] | RA (relative activity value) [13] | RA (relative activity value) [14] | RA (relative activity value) [15] | RA (relative activity value) [16] | RA (relative activity value) [17] | RA (relative activity value) [18] | RA (relative activity value) [19]
1 | COc1cc2ncnc(Nc3ccc(Oc4ccccc4)cc3)c2cc1OC [Src kinase inhibitor I, 4-(4′-phenoxylanilino)-6,7-dimethoxyquinazoline] | 0.632 | 0.434 | 0.624 | 0.394 | 0.637 | 0.563 | 0.329 | 0.535 | 0.418 | 0.508 | 0.397 | 0.364 | 0.551 | 0.551 | 0.837 | 0.190 | 0.567 | 0.442 | 0.627
2 | COc1ccc2c(c1)cc(C)c1nnc(SCC(=O)Nc3cccc(C(C)=O)c3)n12 [Src kinase inhibitor II] | 0.731 | 0.668 | 0.620 | 0.528 | 0.615 | 0.720 | 0.476 | 0.644 | 0.709 | 0.307 | 0.715 | 0.426 | 0.500 | 0.514 | 0.549 | 0.523 | 0.414 | 0.697 | 0.596
3 | Cc1ccc(-c2nn(C(C)(C)C)c3ncnc(N)c23)cc1 [PP1, 1-(1,1-dimethylethyl)-1-(4-methylphenyl)-1H-pyrazolo-[3,4-d]-pyrimidine-4-amine] | 0.302 | 0.309 | 0.496 | 0.193 | 0.446 | 0.451 | 0.160 | 0.292 | 0.194 | 0.295 | 0.173 | 0.134 | 0.313 | 0.403 | 0.448 | 0.322 | 0.260 | 0.314 | 0.507
